According to patent US11851459B2, “Methods and uses of modulators of anaphase promoting complex (APC) activity for treating cancer” (University of Saskatchewan, priority 2018, dated 2023):

How the values were obtained:
APC (substrate Cyclin B) = experiment: Cyclin B protein levels in MCF7 cells; format: cell-based, human; conditions: MCF7, 48 hrs; 1 mM metformin or transient transfection of peptide plasmid
Procedure: MCF7 breast cancer cells were treated with 1 mM metformin or transiently transfected with an APC activating peptide (C43-4) for 48 hrs, then harvested for assessment of Cyclin B protein levels. Cyclin B is an APC target.
A mouse model for growing patient derived breast tumor cells obtained from a patient with triple negative breast cancer was developed. This patient had developed resistance to Doxorubicin. Tumors growing in these mice grow rapidly. Mice growing the patient derived xenografted (PDX) tumor were injected with various amounts of M2I-1. […] Since the APC was activated in the canines tested in this study following treatment with metformin, it was asked if metformin can directly activate the APC. Reduced APC substrate Cyclin B levels following metformin treatment in human MCF7 breast cancer cells was observed, similar to that observed when MDF7 cells express the C43-4 plasmid (see below for more on this plasmid) (FIG. 21).

WT cells = experiment: Stationary phase WT cells spot diluted (chronological lifespan / stress resistance); format: cell-based, yeast; conditions: FIG. 2B; for stress resistance: WT cells grown to stationary phase, spot diluted; for chronological lifespan: WT cells
Procedure: (§1) A. apc5^CA (temperature sensitive allele) cells were transformed with C43-4 or an empty vector. Cells grown overnight in 2% Glu were struck onto 2% Glucose plates and used for the yeast RLS assay. From the top left hand corner of the figures, top line is WT +empty vector, middle line is apc5^CA+C43-4 peptide and bottom line is apc5^CA+empty vector. B. WT cells transformed with C43-4, C2-4B or an empty vector were grown to stationary phase in 2% Glu media, then after 2 days spot diluted onto 2% Glu or 2% Gal to induce expression of the peptides.

MDA-MB-231 cells [1] = experiment: Scratch assay, migration of MDA-MB-231 cells; format: cell-based, human
Procedure: A. An equal number of MDA-MB-231 TNBC cells were grown to confluence in 6 well plates. The cells were then treated with increasing doses of metformin (0, 1, 5 and 10 mM) and a scratch was made in the cell lawn creating a void. At the times shown the number of cell that migrated into the void were counted. The experiment was repeated twice. B. WT MDA-MB-231 cells and cells stably expressing the C43-4 plasmid were grown as in A. Control cells were left untreated, with other cells treated with the DMSO control, 1 uM DOX or 2.5 uM M2I-1. A void was created in the cell lawn and the number of cells that entered the void were scored as above. This experiment was repeated 4 times. This experiment was also repeated 4 times in an independently generated stable C43-4 cell line with similar results. The error of the mean is shown. C. WT and MDA-MB-231 cells stably expressing the C2-4B peptide plasmid were used for the scratch assay as described above. D. WT and MDA-MB-231 cells stably expressing the C13-3 peptide plasmid were used for the scratch assay as described above. The experiments in C and D were only performed once.
Assays using WT and C43-4 expressing cells have been done 4 times. Assays using C13-3 and C2-4B cells have only been conducted once. Metformin treated cells have been used twice. For scratch assays, a scratch is made down a confluent plate of cells, leaving a void. The number of cells that migrate back into the void over time is determined.

MDA-MB-231 cells [2] = experiment: DOX sensitivity, MTT viability assay, MDA-MB-231 cells expressing peptides; format: cell-based, human; conditions: for sensitivity to DOX treatment: DOX 1 uM 48 hrs
Procedure: A. Transient transfection of the C43-4 peptide plasmid into human triple negative MDA-MB-231 breast cancer cells followed by Western blot analysis of lysates against Cyclin B, Securin and Cdc20 showing enhanced protein loss. B. Cells in A were treated with DOX (1 uM) for 48 hrs with cell viability measured using an MTT assay kit. The experiment was done in triplicate with standard error of the means shown.
A. Stable integration of C43-4 in MDA-MB-231 cells was established by selection of transfected cells on Geneticin for 7 days. Westerns against APC substrates show APC activation. B. Cells in A were treated with DOX (1 uM) for 48 hrs with cell viability measured using an MTT assay kit. Mean and SEM of 3 biological repeats.
A. TNBC MDA-MB-231 cells stably expressing APC binding peptides activate the APC. Cells were grown to confluence and then used to prepare protein lysates. The lysates were used to measure levels of the APC substrate CDC20, which will be reduced if the APC is activated. Cells stably expressing the pcDNA empty vector were used as a control. B. In a similar experiment, MDA-MB-231 cells stably expressing the APC binding peptides shown, or the empty vector control, were used to measure protein levels of the APC substrate HURP using Westerns. C. Triplicate blots as in B were scanned, normalized to tubulin and plotted. Error of the mean is shown. Significant changes are indicated. D. MDA-MB-231 cells stably expressing the empty pcDNA vector, or the C43-4 and C13-3 APC binding peptides, were treated with 1 μM Doxorubicin for 24 hrs. Cell viability was measured using an MTT viability assay.
In FIG. 26B, MDA-MB-231 cells were also stably transfected with the peptides C1-8, C2-4B, C3-1B, and C9-5. Levels of the APC substrate HURP were measured in lysates prepared from these cells. […] The empty vector pcDNA was also stably expressed in 231 cells and used as a control.

wild type (WT) cells = experiment: Growth of WT yeast expressing peptides, spot dilution; format: cell-based; conditions: peptides expressed in WT yeast
Excerpt: A. Yeast 2-hybrid (Y2H) cells expressing the APC subunit bait and the galactose inducible Apc10 peptide prey grown on glucose or galactose. Cells co-expressing the Apc5 or Apc10-bait and Apc10 aptamer-prey vectors were spotted onto the appropriate media, in the presence or absence of galactose (the aptamers are Gal inducible), to confirm Y2H interactions. Growth on trp^− his^− media ensures both plasmids are maintained. A Y2H interaction will drive expression of the ADE2 gene, allowing growth on ade^− media. B. Aptamers that bind Apc10 can suppress APC mutant phenotypes. Spot dilutions of apc10Δ cells expressing an empty vector control or the one of 6 Apc10 aptamers tested. Log phase cells were 10-fold serially diluted and spotted onto plates containing either 2% glucose or 2% galactose. The plates were then incubated at 30° C. (permissive temperature) and 34° C. (restrictive stress). C. Peptides identified as binding to the yeast Apc10 APC subunit using the Y2H screen increase growth of wildtype (WT) cells. A series of APC binding peptides were transformed into WT yeast cells, spot diluted, and grown at 30° C. on media supplemented with the normal carbon source (2% glucose). […]
The six peptide expressing vectors were transformed into apc10Δ cells and assessed for temperature sensitive growth. […]

apc5^CA cells = experiment: Yeast replicative lifespan (RLS) assay; format: cell-based
Procedure: as §1

Row | Sequence | APC substrate Cyclin B protein levels (APC (substrate Cyclin B)) | stress resistance (WT cells) | chronological lifespan (WT cells) | metastatic potential / in vitro migration (MDA-MB-231 cells [1]) | synergy with Doxorubicin (killing effect) (MDA-MB-231 cells [2]; stably transfected, 1 uM Doxorubicin 24 hours) | sensitivity to DOX treatment (MDA-MB-231 cells [2]; stably transfected) | sensitivity to DOX treatment (MDA-MB-231 cells [2]; transiently transfected) | growth / viability of WT cells (wild type (WT) cells) | replicative lifespan (apc5^CA cells)
1 | NGSSHNDLRVRRLTLISRLC [C43-4] | reduces protein levels | increase stress resistance | improved chronological lifespan | inhibit the in vitro migration | synergize | resensitized | resensitized | increases the viability of WT cells | increased replicative lifespan
2 | RMPQWWQWMWV [C2-4B] |  | increase stress resistance | improved chronological lifespan | inhibit the in vitro migration |  |  |  |  | 
